According to patent EP4793274A1, “SALT AND CRYSTAL FORM OF KIF18A INHIBITOR COMPOUND, PREPARATION METHOD THEREFOR AND USE THEREOF” (Hubei Bio-Pharmaceutical Industrial Technological Institute …, priority 2023, dated 2025):
Counter-ions that a name gives are not always drawn. Like-named read-outs stand apart in the source and are kept apart here.

Columns and labels:
pKa of the compound = assay type: physicochemical; conditions: basic group
NIH:OVCAR-3 cells = test: Inhibition of OVCAR3 tumor cell proliferation (CellTiter-Glo); assay type: cell-based; conditions: Homo sapiens, OVCAR-3, 72 h, 3 days drug treatment
Method: NIH:OVCAR-3 cells (ATCC, Cat No. HTB-161, purchased from Co-Bier) were seeded into a T75 culture flask and cultured in an RPMI 1640 medium containing 20% FBS for 3 days in preparation for subsequent culturing and seeding into a 96-well plate for the cell proliferation assay. The OVCAR3 cells were seeded at a density of 3000 cells/100 µL/well into the 96-well cell plate, and then the plate was incubated in an incubator (37 °C, 5% CO2) for 18 h. On the second day, drug treatment was started. Serially diluted test compound solutions (each drug starting at a concentration of 10 µM, diluted in DMSO, with a dilution ratio of 1:3, and nine gradient points for each drug) or DMSO (negative control) was added to the medium in the plate at 100 µL/well, and a blank group was set up with only medium, but no seeded cell strains. After the drug addition, the plate was incubated in the incubator for another 3 days (37 °C, 5% CO2). On the fourth day, plate detection was performed. To each well, 100 µL of CellTiter-Glo reagent (Promega G9243) was added. The plate was shaken for 5 min and then left to stand at room temperature for 5 min. The chemical luminescence signal value of each well was determined using a microplate reader (PerkinElmer EnVision®2104). […] Then, the IC50 value of the test compound was calculated using the GraphPad Prism 8 software.

[1] = biological target: T1, recombinant protein KIF18A (kinesin domain: aa 1-467) (Homo sapiens, UniProt Q8NI77); test: Inhibition of KIF18A enzymatic activity (ADP-Glo kinase assay kit); assay type: biochemical; conditions: KIF18A 80 nM, ATP 80 µM, 3 h at room temperature, luminescence
T1 construct: KIF18A (kinesin domain: aa 1-467); made in house; host or cells: Bac-to-Bac baculovirus expression system (Invitrogen)
T1 sequence (Q8NI77 1-467): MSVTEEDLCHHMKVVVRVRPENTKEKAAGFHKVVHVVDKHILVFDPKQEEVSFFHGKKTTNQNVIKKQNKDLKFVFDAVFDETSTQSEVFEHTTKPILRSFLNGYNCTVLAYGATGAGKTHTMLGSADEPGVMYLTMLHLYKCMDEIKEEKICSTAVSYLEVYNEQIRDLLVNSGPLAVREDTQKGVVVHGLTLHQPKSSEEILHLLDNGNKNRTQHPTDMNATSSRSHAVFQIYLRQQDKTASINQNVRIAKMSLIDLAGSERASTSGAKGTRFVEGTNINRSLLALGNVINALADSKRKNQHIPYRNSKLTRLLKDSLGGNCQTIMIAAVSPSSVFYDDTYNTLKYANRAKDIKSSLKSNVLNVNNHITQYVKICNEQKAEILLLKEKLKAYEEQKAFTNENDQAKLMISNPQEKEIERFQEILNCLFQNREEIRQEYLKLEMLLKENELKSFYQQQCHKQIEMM
Description: The recombinant protein KIF18A (kinesin domain: aa 1-467) used in this assay was expressed by the Bac-to-Bac baculovirus expression system from Invitrogen, and the resulting protein was purified for use in this assay (Seki, M. et al. 2003 Nucleic Acids Res.). Quantitative detection of KIF18A enzymatic activity was completed using an ADP-Glo™ kinase assay kit (Promega Inc). Related procedures strictly followed the product instructions, which are briefly described as follows: The reaction system consisted of a test compound, the recombinant protein KIF18A (aa 1-467), ATP (Promega Inc), and an assay buffer. The test compound was prepared into a 0.5 mM stock solution using DMSO (Sigma Inc) and then serially diluted in DMSO. The assay buffer consisted of an aqueous solution of 15 mM Tris, 10 mM MgCl2 (Sigma Inc), 0.01% Pluronic F-68 (Life Technologies Inc), 1 µM paclitaxel (Cytoskeleton Inc), 30 µg/mL porcine tubulin (Cytoskeleton Inc), and 2% DMSO. […] After all reactions were completed, the luminescence values of the wells were read on a microplate reader (Molecular Device_SpectraMax Id5), and the inhibition ratios were calculated. […] Then, based on the inhibition rates at different compound concentrations, the IC50 value of the test compound was calculated using the GraphPad Prism 8 software.

[2] = Dynamic solubility at 37 °C in H2O, SGF, FaSSIF and FeSSIF (HPLC concentration, pH of filtrate, XRPD of residual solid); assay type: physicochemical; conditions: for solubility at 1 h / solubility at 2 h / solubility at 4 h / solubility at 24 h: feeding concentration 10 mg/mL, read-out: S: solubility; for FC: crystal form change: XRPD of residual solid; for FC: crystal form change / pH: listed as Crystal form B of sulfate; for pH: pH of filtrate
Method: 0.82 mL of glacial acetic acid and 1.18 g of NaCl were added to a 100 mL volumetric flask and completely dissolved by addition of purified water.
The solubility of each sample in H2O, SGF, FaSSIF, and FeSSIF was determined at different time points (1 h, 2 h, 4 h, and 24 h). […] 137-156. […] Table C-2. Summary of dynamic solubility test results at 37 °C

[3] = Hygroscopicity by dynamic vapor sorption (DVS); assay type: physicochemical; conditions: 25 °C/80% RH
Method: Dynamic vapor sorption (DVS) curves were acquired on a DVS IntrInsic from Surface Measurement Systems (SMS). The relative humidity at 25 °C was corrected with the deliquescence points of LiCl, Mg(NO3)2, and KCl. Table A-5. DVS test parameters
The percentage changes in mass of the samples when the humidity changed (0% RH to 95% RH) at a constant temperature of 25 °C were collected. 157-166.

[4] = Solubility at room temperature in water, SGF and FaSSIF (HPLC concentration, pH of filtrate, XRPD of residual solid); conditions: for pH: pH of filtrate, listed as Crystal form B of sulfate
[5] = Solid state stability (XRPD and HPLC purity); assay type: physicochemical; conditions: listed as Crystal form B of sulfate
Description: 167-171. […] Table C-3. Summary of solid state stability evaluation

For `Cc1cc(-c2cnn(-c3ccc(NS(=O)(=O)CCO)cc3N3CCC4(CC3)CC4)c2)nc(N2CCC(F)(F)CC2)n1` [compound of formula I, N-(4-(4-(2-(4,4-difluoropiperidin-1-yl)-6-methylpyrimidin-4-yl)-1H-pyrazol-1-yl)-3-(6-azaspiro[2.5]octan-6-yl)phenyl)-2-hydroxyethane-1-sulfonamide], the pKa (pKa of the compound) was 4.5, the IC50 (NIH:OVCAR-3 cells) was 0.096 µM and the IC50 [1] was 0.011 µM.
In the case of `Cc1cc(-c2cnn(-c3ccc(NS(=O)(=O)CCO)cc3N3CCC4(CC3)CC4)c2)nc(N2CCC(F)(F)CC2)n1` [crystal form B of the sulfate], the solubility at 1 h ([2]; FaSSIF, 1 h) is reported as 53.9 µg/mL, the solubility at 2 h ([2]; FaSSIF, 2 h) is reported as 36.4 µg/mL and the solubility at 4 h ([2]; FaSSIF, 4 h) is reported as 28.1 µg/mL. The solubility at 24 h ([2]; FaSSIF, 24 h) was 13.6 µg/mL, the solubility at 1 h ([2]; FeSSIF, 1 h) was 194 µg/mL and the solubility at 2 h ([2]; FeSSIF, 2 h) was 186 µg/mL. For the same compound, the solubility at 4 h ([2]; FeSSIF, 4 h) was 166 µg/mL, the solubility at 24 h ([2]; FeSSIF, 24 h) was 79 µg/mL and the solubility at 1 h ([2]; SGF, 1 h) was 147 µg/mL. The solubility at 2 h ([2]; SGF, 2 h) was 82.4 µg/mL, the solubility at 4 h ([2]; SGF, 4 h) was 18.1 µg/mL and the solubility at 24 h ([2]; SGF, 24 h) was 18.5 µg/mL. For the same compound, the “FC: crystal form change” value ([2]; FaSSIF, 1 h) was “Yes”, the “FC: crystal form change” value ([2]; FaSSIF, 2 h) was “Yes” and the “FC: crystal form change” value ([2]; FaSSIF, 4 h) was “Yes”. For the same compound, the “FC: crystal form change” value ([2]; FaSSIF, 24 h) was “Yes”, the “FC: crystal form change” value ([2]; FeSSIF, 1 h) was “Yes” and the “FC: crystal form change” value ([2]; FeSSIF, 2 h) was “Yes”. The “FC: crystal form change” value ([2]; FeSSIF, 4 h) was “Yes”, the “FC: crystal form change” value ([2]; FeSSIF, 24 h) was “Yes” and the “FC: crystal form change” value ([2]; H2O, 1 h) was “Yes”. The “FC: crystal form change” value ([2]; H2O, 2 h) was “Yes”, the “FC: crystal form change” value ([2]; H2O, 4 h) was “Yes” and the “FC: crystal form change” value ([2]; H2O, 24 h) was “Yes”. For the same compound, the “FC: crystal form change” value ([2]; SGF, 1 h) was “Yes”, the “FC: crystal form change” value ([2]; SGF, 2 h) was “Yes” and the “FC: crystal form change” value ([2]; SGF, 4 h) was “Yes”. For the same compound, the “FC: crystal form change” value ([2]; SGF, 24 h) was “Yes”, the pH ([2]; FaSSIF, 1 h) was 2.06 and the pH ([2]; FaSSIF, 2 h) was 2.13. For the same compound, the pH ([2]; FaSSIF, 4 h) was 2.07, the pH ([2]; FaSSIF, 24 h) was 2.08 and the pH ([2]; FeSSIF, 1 h) was 4.50. It also gave a pH ([2]; FeSSIF, 2 h) of 4.49, a pH ([2]; FeSSIF, 4 h) of 4.48 and a pH ([2]; FeSSIF, 24 h) of 4.48. It also gave a pH ([2]; H2O, 1 h) of 1.50, a pH ([2]; H2O, 24 h) of 1.56 and a solubility at 1 h ([2]; water, H2O, 1 h) of 38.2 µg/mL. The solubility at 2 h ([2]; water, H2O, 2 h) was 18 µg/mL, the solubility at 4 h ([2]; water, H2O, 4 h) was 11.1 µg/mL and the solubility at 24 h ([2]; water, H2O, 24 h) was 3 µg/mL. It also gave a solubility at 2 h (physchem; fassif) of 61.6 µg/mL, a solubility at 24 h (physchem; fassif) of 33.8 µg/mL and a solubility at 2 h (physchem; sgf) of 54.5 µg/mL. For the same compound, the solubility at 24 h (physchem; sgf) was 25 µg/mL, the solubility at 24 h (physchem; water) was 0.1 µg/mL and the vapor sorption values [3] was 0.445%. For the same compound, the “S: solubility” value ([4]; H2O, 2 h, feeding concentration 1 mg/mL) was “<LOQ”, the pH ([4]; FaSSIF, 2 h) was 6.3 and the pH ([4]; FaSSIF, 24 h) was 6.2. For the same compound, the pH ([4]; H2O, 2 h) was 2.7, the pH ([4]; H2O, 24 h) was 2.5 and the pH ([4]; SGF, 2 h) was 1.8. The pH ([4]; SGF, 24 h) was 1.8, the “HPLC results Purity (area%)” value ([5]; 25 °C/60% RH/open, 1 week) was 97.97 area% and the “HPLC results Purity (area%)” value ([5]; 40 °C/75% RH/open, 1 week) was 97.98 area%. The “HPLC results Purity (area%)” value ([5]; 80 °C/sealed, 1 day) was 97.98 area%, the “HPLC results Relative to starting (%)” value ([5]; 80 °C/sealed, 1 day) was 100.0% and the “HPLC results Purity (area%)” value ([5]; Starting) was 98.00 area%. The Crystal form ([5]; XRPD after 25 °C/60% RH/open, 1 week) was “Crystal form B of sulfate”, the Crystal form ([5]; XRPD after 40 °C/75% RH/open, 1 week) was “Crystal form B of sulfate” and the Crystal form ([5]; XRPD after 80 °C/sealed, 1 day) was “Crystal form B of sulfate”.
